Where “and” joins values, the source holds several entries; their conditions need not be identical. Equal values may be shown once. Toxic doses and inconclusive results are not listed. Cut-off read from the data, not from the text of the source: active = T/C of 150% or more; inactive = T/C below 125%.
Test system: L1210 leukemia ip in BDF1 mice, survival T/C
Assay: NCI In Vivo Anticancer Drug Screen. Data for tumor model L1210 Leukemia (intraperitoneal) in B6D2F1 (BDF1) mice
Conditions: endpoint: mean survival time, higher = longer survival
Procedure, shortened: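 Ratio derived from survival: compound-dosed mice over vehicle-dosed mice, all bearing a transplantable tumor.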

[1] = dose: 50.0 mg/kg/injection, schedule: Q04DX003 (ip), vehicle: Klucel (hydroxypropylcellulose) (HPC)
[2] = dose: 100.0 mg/kg/injection, schedule: Q04DX003 (ip), vehicle: Klucel (hydroxypropylcellulose) (HPC)
[3] = dose: 200.0 mg/kg/injection, schedule: Q04DX003 (ip), vehicle: Klucel (hydroxypropylcellulose) (HPC)
[4] = dose: 50.0 mg/kg/injection, schedule: Q01DX001 (ip), vehicle: carboxymethylcellulose (CMC)
[5] = dose: 100.0 mg/kg/injection, schedule: Q01DX001 (ip), vehicle: carboxymethylcellulose (CMC)
[6] = dose: 100.0 mg/kg/injection, schedule: Q01DX009 (ip), vehicle: Klucel (hydroxypropylcellulose) (HPC)
[7] = dose: 200.0 mg/kg/injection, schedule: Q01DX001 (ip), vehicle: carboxymethylcellulose (CMC)
[8] = dose: 200.0 mg/kg/injection, schedule: Q01DX009 (ip), vehicle: Klucel (hydroxypropylcellulose) (HPC)
[9] = dose: 400.0 mg/kg/injection, schedule: Q01DX001 (ip), vehicle: carboxymethylcellulose (CMC)
[10] = dose: 400.0 mg/kg/injection, schedule: Q01DX009 (ip), vehicle: Klucel (hydroxypropylcellulose) (HPC)
[11] = dose: 100.0 mg/kg/injection, schedule: Q01DX001 (ip), vehicle: other
[12] = dose: 200.0 mg/kg/injection, schedule: Q01DX001 (ip), vehicle: other
[13] = dose: 100.0 mg/kg/injection, schedule: Q04DX003 (ip), vehicle: saline with Tween-80
[14] = dose: 200.0 mg/kg/injection, schedule: Q04DX003 (ip), vehicle: saline with Tween-80

Measured: T/C

O=C(O)C1(O)C(Cl)(Cl)C(Cl)=C(Cl)C1(Cl)Cl
inactive: dose: 50.0 mg/kg/injection, schedule: Q01DX009 (ip), vehicle: saline sonified 103 % of control | [1] 92 % of control | dose: 100.0 mg/kg/injection, schedule: Q01DX009 (ip), vehicle: saline sonified 105 % of control | [2] 97 % of control and 100 % of control | [3] 111 % of control

COC1=C(NC(C)(C)C)C(=O)C(OC)=C(NC(C)(C)C)C1=O
inactive: [4] 103 % of control | [5] 97 % of control | [6] 109 % of control | [2] 98 % of control | [7] 109 % of control | [8] 95 % of control | [3] 96 % of control | [9] 109 % of control | [10] 106 % of control | dose: 400.0 mg/kg/injection, schedule: Q04DX003 (ip), vehicle: Klucel (hydroxypropylcellulose) (HPC) 100 % of control

CCCCCCCCCCCCCC#N
inactive: [11] 101 % of control | [12] 92 % of control | dose: 400.0 mg/kg/injection, schedule: Q01DX001 (ip), vehicle: other 92 % of control

CCOC(=O)NC(NC(=O)OCC)c1ccc2c(c1)OCO2
inactive: [4] 105 % of control | [5] 96 % of control | [7] 91 % of control | [9] 94 % of control

CCCCCCCCCCCC(=O)[O][Sn]([CH2]C)([CH2]C)[O]C(=O)CCCCCCCCCCC
inactive: dose: 6.25 mg/kg/injection, schedule: Q04DX003 (ip), vehicle: saline 112 % of control | dose: 8.75 mg/kg/injection, schedule: Q01DX009 (ip), vehicle: saline with Tween-80 98 % of control | dose: 12.5 mg/kg/injection, schedule: Q01DX001 (ip), vehicle: saline 103 % of control | dose: 12.5 mg/kg/injection, schedule: Q04DX003 (ip), vehicle: saline 105 % of control | dose: 17.5 mg/kg/injection, schedule: Q01DX009 (ip), vehicle: saline with Tween-80 121 % of control | dose: 25.0 mg/kg/injection, schedule: Q01DX001 (ip), vehicle: saline 109 % of control | dose: 25.0 mg/kg/injection, schedule: Q04DX003 (ip), vehicle: saline 112 % of control | dose: 35.0 mg/kg/injection, schedule: Q04DX003 (ip), vehicle: acetone 106 % of control

Cn1c(=O)c2c(nc(C3CC3)n2C)n(C)c1=O
inactive: dose: 50.0 mg/kg/injection, schedule: Q01DX001 (ip), vehicle: other 112 % of control | [11] 95 % of control | [12] 95 % of control

CN(C)CCC/C=N/Nc1ccc(Cl)cc1[N+](=O)[O-]
inactive: [13] 96 % of control | [14] 91 % of control

O=[N+]([O-])c1cccc(C2=NNC(c3cccc([N+](=O)[O-])c3)=NN2)c1
inactive: dose: 175.0 mg/kg/injection, schedule: Q01DX001 (ip), vehicle: saline 87 % of control | dose: 265.0 mg/kg/injection, schedule: Q01DX001 (ip), vehicle: saline 92 % of control | dose: 400.0 mg/kg/injection, schedule: Q01DX001 (ip), vehicle: saline 89 % of control | dose: 600.0 mg/kg/injection, schedule: Q01DX001 (ip), vehicle: saline 89 % of control

CCN(C(=O)Nc1ccc(Cl)cc1)c1ccccc1C
inactive: [13] 91 % of control | [14] 93 % of control

O=C(COc1ccc(Cl)c(Cl)c1)NCc1ccc[n+](Cc2ccc(Cl)cc2S(=O)(=O)F)c1
inactive: [13] 100 % of control | [14] 106 % of control

CN1C2CCC1CC(OC(c1ccccc1)c1ccccc1)C2 (configuration not stated)
inactive: dose: 3.12 mg/kg/injection, schedule: Q01DX009 (ip), vehicle: saline 95 % of control | dose: 5.0 mg/kg/injection, schedule: Q01DX009 (ip), vehicle: saline 92 % of control | dose: 6.25 mg/kg/injection, schedule: Q01DX009 (ip), vehicle: saline 97 % of control | dose: 10.0 mg/kg/injection, schedule: Q01DX009 (ip), vehicle: saline 103 % of control | dose: 12.5 mg/kg/injection, schedule: Q01DX009 (ip), vehicle: saline 103 % of control | dose: 17.0 mg/kg/injection, schedule: Q01DX009 (ip), vehicle: saline 95 % of control | dose: 20.0 mg/kg/injection, schedule: Q01DX009 (ip), vehicle: saline 90 % of control | dose: 25.0 mg/kg/injection, schedule: Q01DX009 (ip), vehicle: saline 109 % of control | dose: 55.0 mg/kg/injection, schedule: Q01DX001 (ip), vehicle: saline 98 % of control

Nc1ncnc2c1ccn2C1CCCC1
inactive: dose: 25.0 mg/kg/injection, schedule: Q01DX001 (ip), vehicle: carboxymethylcellulose (CMC) 100 % of control | [4] 111 % of control | [5] 105 % of control

O=S(=O)(CCCBr)NC1CCCCC1
inactive: [6] 96 % of control | [8] 91 % of control | [10] 93 % of control

CCP(CC)SC1OC(COC(C)=O)C(OC(C)=O)C(OC(C)=O)C1OC(C)=O (configuration not stated)
inactive: dose: 50.0 mg/kg/injection, schedule: Q01DX001 (ip), vehicle: Klucel (hydroxypropylcellulose) (HPC) 102 % of control | dose: 100.0 mg/kg/injection, schedule: Q01DX001 (ip), vehicle: Klucel (hydroxypropylcellulose) (HPC) 101 % of control | dose: 200.0 mg/kg/injection, schedule: Q01DX001 (ip), vehicle: Klucel (hydroxypropylcellulose) (HPC) 98 % of control

CCCCCCCCCCCCOCCCN
inactive: dose: 12.5 mg/kg/injection, schedule: Q01DX009 (ip), vehicle: saline with Tween-80 98 % of control | dose: 12.5 mg/kg/injection, schedule: Q04DX003 (ip), vehicle: saline with Tween-80 92 % of control | dose: 25.0 mg/kg/injection, schedule: Q01DX009 (ip), vehicle: saline with Tween-80 90 % of control | dose: 25.0 mg/kg/injection, schedule: Q04DX003 (ip), vehicle: saline with Tween-80 90 % of control | dose: 50.0 mg/kg/injection, schedule: Q04DX003 (ip), vehicle: saline with Tween-80 92 % of control

CCC(=O)c1ccc(N=Nc2c(N)nc(N)[nH]c2=O)cc1
inactive: [5] 101 % of control | [7] 108 % of control | [9] 103 % of control

Nc1ccc(NC(=S)S)cc1
inactive: dose: 75.0 mg/kg/injection, schedule: Q01DX001 (ip), vehicle: saline 93 % of control | dose: 150.0 mg/kg/injection, schedule: Q01DX001 (ip), vehicle: saline 93 % of control

CC(=O)CCC(=O)O
inactive: dose: 1.56 mg/kg/injection, schedule: Q01DX Z (ip), vehicle: other 98 % of control | dose: 3.13 mg/kg/injection, schedule: Q01DX Z (ip), vehicle: other 96 % of control | dose: 6.25 mg/kg/injection, schedule: Q01DX Z (ip), vehicle: other 96 % of control | dose: 12.5 mg/kg/injection, schedule: Q01DX Z (ip), vehicle: other 95 % of control | dose: 25.0 mg/kg/injection, schedule: Q01DX Z (ip), vehicle: other 95 % of control | dose: 50.0 mg/kg/injection, schedule: Q01DX Z (ip), vehicle: other 98 % of control | dose: 100.0 mg/kg/injection, schedule: Q01DX Z (ip), vehicle: other 113 % of control | dose: 100.0 mg/kg/injection, schedule: Q04DX002 (ip), vehicle: saline 88 % of control | dose: 200.0 mg/kg/injection, schedule: Q01DX Z (ip), vehicle: other 96 % of control | dose: 200.0 mg/kg/injection, schedule: Q04DX002 (ip), vehicle: saline 100 % of control | dose: 400.0 mg/kg/injection, schedule: Q04DX002 (ip), vehicle: saline 118 % of control

CC(c1ccccc1)n1ccnc1CO (configuration not stated)
inactive: dose: 50.0 mg/kg/injection, schedule: Q01DX009 (ip), vehicle: Klucel (hydroxypropylcellulose) (HPC) 103 % of control and 112 % of control | [1] 98 % of control | [6] 102 % of control and 115 % of control | [2] 106 % of control | [8] 98 % of control

Cc1c2c(cc3c1OCN(Cc1ccccc1)C3)CN(Cc1ccccc1)CO2
inactive: [4] 105 % of control | [5] 94 % of control | [7] 89 % of control | [9] 91 % of control

CC(C)/C([O-])=N\[N+](C)(C)Cc1ccccc1
inactive: dose: 100.0 mg/kg/injection, schedule: Q04DX003 (ip), vehicle: saline 105 % of control | dose: 200.0 mg/kg/injection, schedule: Q04DX003 (ip), vehicle: saline 100 % of control | dose: 400.0 mg/kg/injection, schedule: Q04DX003 (ip), vehicle: saline 98 % of control

CC(=O)CC(=O)C(F)(F)F.CC(=O)CC(=O)C(F)(F)F.CC(=O)CC(=O)C(F)(F)F.[Cr]
inactive: [5] 109 % of control | [7] 96 % of control | [9] 98 % of control
